Results taken from US11795177B2, “Substituted quinoline analogs as aldehyde dehydrogenase 1A1 (ALDH1A1) inhibitors” (THE UNITED STATES OF AMERICA, AS REPRESENTED BY THE …, priority 2017, dated 2023).
pIC50: −log10 of the molar value. Where a name gives a salt, the structure may show the parent alone.

Key:
[1] = molecular target: T1, ALDH1A1 enzyme (Homo sapiens, UniProt P00352); assay: ALDH1A1 enzymatic assay (in vitro); assay type: biochemical; conditions: ALDH1A1 enzyme 20 nM, NAD+ 1 mM, propionaldehyde 80 μM; read-out: ALDH1A1 IC50
T1 sequence (P00352 1-501): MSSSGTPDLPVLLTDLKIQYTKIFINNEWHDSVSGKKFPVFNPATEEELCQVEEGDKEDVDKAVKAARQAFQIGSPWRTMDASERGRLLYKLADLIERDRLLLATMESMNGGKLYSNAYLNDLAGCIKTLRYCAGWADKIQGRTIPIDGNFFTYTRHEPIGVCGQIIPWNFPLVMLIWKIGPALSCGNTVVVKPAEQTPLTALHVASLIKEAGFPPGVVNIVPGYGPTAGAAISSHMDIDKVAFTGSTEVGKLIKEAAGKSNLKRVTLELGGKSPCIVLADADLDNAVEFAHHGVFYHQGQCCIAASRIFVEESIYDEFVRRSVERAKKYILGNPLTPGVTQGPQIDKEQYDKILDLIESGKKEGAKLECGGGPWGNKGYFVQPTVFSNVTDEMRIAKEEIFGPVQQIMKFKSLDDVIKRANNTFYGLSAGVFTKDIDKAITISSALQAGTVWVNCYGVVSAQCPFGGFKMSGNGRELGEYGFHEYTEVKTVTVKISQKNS
Procedure, shortened: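 ALDH1A1 (20 nM final) in 100 mM HEPES pH 7.5, 0.01% Tween 20 was preincubated 15 min at RT with compound (968 pM–57.2 μM final), then started with 1 mM NAD+ and 80 μM propionaldehyde. NADH fluorescence (ex 340/em 450 nm) followed kinetically for 10 min; change normalized to no-inhibitor and no-enzyme controls for percent inhibition and curve fitting.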

[2] = system: MIA PaCa-2 cells; assay: MIA PaCa2 cell-based assay (1,536-well high-content imaging ALDEFLUOR assay); design: species or system human; conditions: Homo sapiens, 0.5 h, ALDEFLUOR BAAA substrate 500 nM, 30 minutes
Procedure, shortened: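 MIA PaCa-2 cells (1,000/well), plated overnight, given BAAA substrate (500 nM) plus Hoechst 33342 (0.5 nM), then compound (16-point, 1.4 nM–47.8 μM final; 0.5% DMSO). After 30 min at 37° C, ALDH activity imaged by high-content microscopy as BAA-retaining (FITC) cells versus Hoechst-stained nuclei.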

Work on `CN(C)S(=O)(=O)N1CCN(C(=O)c2cnc3ccsc3c2-c2ccc(C3(C#N)CC3)cc2)CC1` [Example 284, 4-(7-(4-(1-cyanocyclopropyl)phenyl)thieno[3,2-b]pyridine-6-carbonyl)-N,N-dimethylpiperazine-1-sulfonamide] yielded a pIC50 [1] greater than 6.30 and a pIC50 [2] greater than 6.30.
`CCC(=O)N1CCN(C(=O)c2cnc3ccc(F)cc3c2N2CCC3(CC2)OCCO3)CC1` [Example 70, 1-(4-(6-fluoro-4-(1,4-dioxa-8-azaspiro[4.5]decan-8-yl)quinoline-3-carbonyl)piperazin-1-yl)propan-1-one] gave a pIC50 [1] greater than 6.30 and a pIC50 [2] of 5.00 to 6.00.
For `CS(=O)(=O)C1CCN(C(=O)c2cnc3ccc(F)cc3c2N2CCC3(CC2)OCCO3)CC1` [Example 185, (6-fluoro-4-(1,4-dioxa-8-azaspiro[4.5]decan-8-yl)quinolin-3-yl)(4-(methylsulfonyl)piperidin-1-yl)methanone], the pIC50 [1] was greater than 6.30 and the pIC50 [2] was 5.00 to 6.00.
Work on `N#CC1(c2ccc(-c3c(C(=O)N4CC5(CC(O)C5)C4)cnc4ccc(F)cc34)cc2)CC1` [Cpd. 335, 1-(4-(6-fluoro-3-(6-hydroxy-2-azaspiro[3.3]heptane-2-carbonyl)quinolin-4-yl)phenyl)cyclopropane-1-carbonitrile] yielded a pIC50 [1] greater than 6.30 and a pIC50 [2] of 5.00 to 6.00.
With `CS(=O)(=O)C1CCN(C(=O)c2cnc3ccc(Cl)cc3c2N2CCC(C#N)(c3ccccc3)CC2)CC1` [Cpd. 310, 1-(6-chloro-3-(4-(methylsulfonyl)piperidine-1-carbonyl)quinolin-4-yl)-4-phenylpiperidine-4-carbonitrile] the pIC50 [1] was greater than 6.30 and the pIC50 [2] was greater than 6.30.
`CCOC(=O)N1CCN(C(=O)c2cnc3ccc(F)cc3c2N2CCC3(CC2)OCCO3)CC1` [Example 54, Ethyl 4-(6-fluoro-4-(1,4-dioxa-8-azaspiro[4.5]decan-8-yl)quinoline-3-carbonyl)piperazine-1-carboxylate] was tested, and the pIC50 [1] was greater than 6.30 and the pIC50 [2] was less than 5.00.
Compound `CS(=O)(=O)N1CCN(C(=O)c2cnc3ccc(F)cc3c2N2CCC3(CCCC3=O)CC2)CC1` [Example 251, 8-(6-fluoro-3-(4-(methylsulfonyl)piperazine-1-carbonyl)quinolin-4-yl)-8-azaspiro[4.5]decan-1-one] has a pIC50 [1] greater than 6.30 and a pIC50 [2] of 6.00 to 6.30.
For `O=C(c1cnc2ccc(F)cc2c1N1CCC(CO)(c2ccccc2)CC1)N1CCN(C(=O)C2CC2)CC1` [Example 255, (4-(cyclopropanecarbonyl)piperazin-1-yl)(6-fluoro-4-(4-(hydroxymethyl)-4-phenylpiperidin-1-yl)quinolin-3-yl)methanone], the pIC50 [1] was 5.00 to 6.00 and the pIC50 [2] was less than 5.00.
`C[C@@H]1CN(C(=O)C2CC2)C[C@H](C)N1C(=O)c1cnc2ccc(F)cc2c1N1CCC(C)(C#N)CC1` [Example 240, 1-(3-((2S*,6R*)-4-(cyclopropanecarbonyl)-2,6-dimethylpiperazine-1-carbonyl)-6-fluoroquinolin-4-yl)-4-methylpiperidine-4-carbonitrile] showed a pIC50 [1] of 5.00 to 6.00 and a pIC50 [2] of less than 5.00.
`CCN(CC)C(=O)N1CCN(C(=O)c2cnc3cc(F)c(F)cc3c2N2CCC3(CC2)OCCO3)CC1` [Example 169, 4-(6,7-difluoro-4-(1,4-dioxa-8-azasprio[4.5]decan-8-yl)quinoline-3-carbonyl)-N,N-diethylpiperazine-1-carboxamide] showed a pIC50 [1] greater than 6.30 and a pIC50 [2] of 5.00 to 6.00.
`COc1ccc2ncc(C(=O)N3CCN(C4CCCC4)CC3)c(N3CCC4(CC3)OCCO4)c2c1` [Example 9, (4-cyclopentylpiperazin-1-yl)(6-methoxy-4-(1,4-dioxa-8-azaspiro[4.5]decan-8-yl)quinolin-3-yl)methanone, TFA] was tested, and the pIC50 [1] was 5.00 to 6.00 and the pIC50 [2] was less than 5.00.
Work on `COc1c(F)cc2c(N3CCC(C)(C#N)CC3)c(C(=O)N3CCN(S(C)(=O)=O)CC3)cnc2c1F` [Example 137, 1-(6,8-difluoro-7-methoxy-3-(4-(methylsulfonyl)piperazine-1-carbonyl)quinolin-4-yl)-4-methylpiperidine-4-carbonitrile] yielded a pIC50 [1] greater than 6.30 and a pIC50 [2] of 6.00 to 6.30.
`CC(C)(C#N)c1ccc(-c2c(C(=O)N3CCN(S(C)(=O)=O)CC3)ccc3ccccc23)cc1` [Example 299, 2-methyl-2-(4-(2-(4-(methylsulfonyl)piperazine-1-carbonyl)naphthalen-1-yl)phenyl)propanenitrile] was tested, and the pIC50 [1] was greater than 6.30 and the pIC50 [2] was greater than 6.30.
`CCOC(=O)N1CCN(C(=O)c2cnc3cc(OC)c(OC)cc3c2N2CCC(C)(C#N)CC2)CC1` [Example 116, Ethyl 4-(4-(4-cyano-4-methylpiperidin-1-yl)-6,7-dimethoxyquinoline-3-carbonyl)piperazine-1-carboxylate] showed a pIC50 [1] greater than 6.30 and a pIC50 [2] of 5.00 to 6.00.
For `C=CC(=O)N1CCN(c2c(C(=O)N3CCN(S(C)(=O)=O)CC3)cnc3ccc(F)cc23)CC1` [Example 220, 1-(4-(6-fluoro-3-(4-(methylsulfonyl)piperazine-1-carbonyl)quinolin-4-yl)piperazin-1-yl)prop-2-en-1-one], the pIC50 [1] was 5.00 to 6.00 and the pIC50 [2] was less than 5.00.
Work on `CS(=O)(=O)N1CCN(C(=O)c2cnc3ccc(F)cc3c2N2CCC3(CC2)OCCO3)CC1` [Example 52, (6-fluoro-4-(1,4-dioxa-8-azaspiro[4.5]decan-8-yl)quinolin-3-yl)(4-(methylsulfonyl)piperazin-1-yl)methanone] yielded a pIC50 [1] greater than 6.30 and a pIC50 [2] of 5.00 to 6.00.
`N#CC1(c2ccccc2)CCN(c2c(C(=O)N3CC4(CC(O)C4)C3)cnc3ccc(F)cc23)CC1` [Cpd. 329, 1-(6-fluoro-3-(6-hydroxy-2-azaspiro[3.3]heptane-2-carbonyl)quinolin-4-yl)-4-phenylpiperidine-4-carbonitrile] showed a pIC50 [1] greater than 6.30 and a pIC50 [2] greater than 6.30.
Compound `CC1(O)CCN(C(=O)c2cnc3ccc(F)cc3c2N2CCC(C#N)(c3ccccc3)CC2)CC1` [Cpd. 349, 1-(6-fluoro-3-(4-hydroxy-4-methylpiperidine-1-carbonyl)quinolin-4-yl)-4-phenylpiperidine-4-carbonitrile] has a pIC50 [1] greater than 6.30 and a pIC50 [2] greater than 6.30.
`CC(=O)C1(c2ccccc2)CCN(c2c(C(=O)N3CCC(S(C)(=O)=O)CC3)cnc3ccc(F)cc23)CC1` [Example 273, 1-(1-(6-fluoro-3-(4-(methylsulfonyl)piperidine-1-carbonyl)quinolin-4-yl)-4-phenylpiperidin-4-yl)ethanone] showed a pIC50 [1] greater than 6.30 and a pIC50 [2] greater than 6.30.
Work on `CCNC(=O)N1CCN(C(=O)c2cnc3c(F)cc(F)cc3c2N2CCC(C)(C#N)CC2)CC1` [Example 145, 4-(4-(4-cyano-4-methylpiperidin-1-yl)-6,8-difluoroquinoline-3-carbonyl)-N-ethylpiperazine-1-carboxamide] yielded a pIC50 [1] of 6.00 to 6.30 and a pIC50 [2] of less than 5.00.
Compound `CC1(C#N)CCN(c2c(C(=O)N3CCN(C(=O)C4CC4)CC3)cnc3c(F)c(F)c(F)cc23)CC1` [Example 128, 1-(3-(4-(cyclopropanecarbonyl)piperazine-1-carbonyl)-6,7,8-trifluoroquinolin-4-yl)-4-methylpiperidine-4-carbonitrile] has a pIC50 [1] greater than 6.30 and a pIC50 [2] of 5.00 to 6.00.
`N#CC1(c2ccc(-c3c(C(=O)N4CC(O)C4)cnc4ccc(F)cc34)cc2)CC1` [Cpd. 334, 1-(4-(6-fluoro-3-(3-hydroxyazetidine-1-carbonyl)quinolin-4-yl)phenyl)cyclopropane-1-carbonitrile] gave a pIC50 [1] of 5.00 to 6.00 and a pIC50 [2] of less than 5.00.
Work on `CC(=O)N1CCN(C(=O)c2cnc3ccccc3c2N2CCC(C)(C#N)CC2)CC1` [Example 96, 1-(3-(4-acetylpiperazine-1-carbonyl)quinolin-4-yl)-4-methylpiperidine-4-carbonitrile] yielded a pIC50 [1] of 5.00 to 6.00 and a pIC50 [2] of less than 5.00.
